Data on 28 compounds can be found in ChEMBL document CHEMBL3112442, “Anilino-monoindolylmaleimides as potent and selective JAK3 inhibitors” (Bioorg Med Chem Lett, 2014).

Assay [1] deals with Tyrosine-protein kinase JAK1 (Homo sapiens, UniProt P23458).
The target in assay [2] is Non-receptor tyrosine-protein kinase TYK2 (Homo sapiens, UniProt P29597).
Assay [3] concerns the target T1, Tyrosine-protein kinase JAK3 (Homo sapiens, UniProt P52333).
T1 sequence (P52333 whole entry): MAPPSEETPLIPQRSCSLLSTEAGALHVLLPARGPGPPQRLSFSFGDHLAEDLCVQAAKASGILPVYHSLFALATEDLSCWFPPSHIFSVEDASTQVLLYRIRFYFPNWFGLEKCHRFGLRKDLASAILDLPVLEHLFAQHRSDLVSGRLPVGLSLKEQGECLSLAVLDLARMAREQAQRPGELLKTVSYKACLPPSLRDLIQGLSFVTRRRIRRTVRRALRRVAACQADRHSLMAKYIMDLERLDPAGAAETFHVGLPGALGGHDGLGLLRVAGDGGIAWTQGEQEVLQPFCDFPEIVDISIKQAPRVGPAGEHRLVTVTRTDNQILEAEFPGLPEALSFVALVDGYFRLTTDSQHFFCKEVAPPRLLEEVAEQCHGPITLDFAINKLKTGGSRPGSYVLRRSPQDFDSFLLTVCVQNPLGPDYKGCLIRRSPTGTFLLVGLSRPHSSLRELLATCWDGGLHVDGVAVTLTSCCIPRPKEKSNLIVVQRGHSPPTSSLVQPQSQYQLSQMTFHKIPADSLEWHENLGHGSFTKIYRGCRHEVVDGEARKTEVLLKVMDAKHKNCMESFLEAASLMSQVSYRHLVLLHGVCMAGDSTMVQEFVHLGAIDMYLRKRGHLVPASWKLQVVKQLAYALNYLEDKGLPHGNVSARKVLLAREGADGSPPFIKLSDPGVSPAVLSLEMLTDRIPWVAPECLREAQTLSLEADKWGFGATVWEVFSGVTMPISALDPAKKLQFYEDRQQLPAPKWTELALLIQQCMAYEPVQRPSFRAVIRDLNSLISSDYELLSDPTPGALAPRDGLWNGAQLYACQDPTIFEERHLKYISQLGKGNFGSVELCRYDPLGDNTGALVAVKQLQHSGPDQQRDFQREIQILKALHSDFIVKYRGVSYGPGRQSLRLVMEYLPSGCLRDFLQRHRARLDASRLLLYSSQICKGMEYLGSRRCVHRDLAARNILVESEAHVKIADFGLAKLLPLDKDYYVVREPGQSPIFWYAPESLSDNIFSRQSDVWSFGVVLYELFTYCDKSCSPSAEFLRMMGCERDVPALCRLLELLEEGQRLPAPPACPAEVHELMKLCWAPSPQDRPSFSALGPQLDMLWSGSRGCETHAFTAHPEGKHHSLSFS

Non-receptor tyrosine-protein kinase TYK2, sequence (P29597 whole entry): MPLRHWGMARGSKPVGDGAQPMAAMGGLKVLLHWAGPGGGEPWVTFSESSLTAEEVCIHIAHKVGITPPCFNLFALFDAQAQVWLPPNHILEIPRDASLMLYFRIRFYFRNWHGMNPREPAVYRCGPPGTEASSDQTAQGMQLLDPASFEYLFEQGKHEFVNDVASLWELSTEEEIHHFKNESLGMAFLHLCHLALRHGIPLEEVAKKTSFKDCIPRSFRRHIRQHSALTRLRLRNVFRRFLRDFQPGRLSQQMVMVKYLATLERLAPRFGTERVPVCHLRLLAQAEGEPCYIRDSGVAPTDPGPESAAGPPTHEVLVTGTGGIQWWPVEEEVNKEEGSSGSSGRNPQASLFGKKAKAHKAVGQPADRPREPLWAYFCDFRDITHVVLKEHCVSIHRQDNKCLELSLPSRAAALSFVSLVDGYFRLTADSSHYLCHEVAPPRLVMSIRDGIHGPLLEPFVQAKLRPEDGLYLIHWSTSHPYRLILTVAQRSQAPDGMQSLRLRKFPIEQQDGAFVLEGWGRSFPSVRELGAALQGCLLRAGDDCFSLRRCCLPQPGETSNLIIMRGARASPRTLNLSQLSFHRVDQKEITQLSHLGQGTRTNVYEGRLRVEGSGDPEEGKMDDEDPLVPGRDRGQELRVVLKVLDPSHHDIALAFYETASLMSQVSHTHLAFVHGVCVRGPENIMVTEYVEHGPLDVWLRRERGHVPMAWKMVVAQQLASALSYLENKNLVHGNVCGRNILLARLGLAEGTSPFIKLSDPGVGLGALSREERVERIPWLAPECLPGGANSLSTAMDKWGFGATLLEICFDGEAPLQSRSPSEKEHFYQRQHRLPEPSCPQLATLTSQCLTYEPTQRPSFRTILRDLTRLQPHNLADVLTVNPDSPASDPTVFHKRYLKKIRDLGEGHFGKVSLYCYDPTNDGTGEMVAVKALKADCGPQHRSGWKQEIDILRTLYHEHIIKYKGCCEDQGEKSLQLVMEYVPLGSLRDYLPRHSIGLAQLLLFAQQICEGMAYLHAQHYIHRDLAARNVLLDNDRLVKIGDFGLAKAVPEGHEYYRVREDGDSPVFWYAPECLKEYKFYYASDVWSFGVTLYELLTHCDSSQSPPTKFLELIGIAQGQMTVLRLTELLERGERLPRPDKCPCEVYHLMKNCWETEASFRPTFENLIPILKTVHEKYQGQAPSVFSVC
Tyrosine-protein kinase JAK1, sequence (P23458 whole entry): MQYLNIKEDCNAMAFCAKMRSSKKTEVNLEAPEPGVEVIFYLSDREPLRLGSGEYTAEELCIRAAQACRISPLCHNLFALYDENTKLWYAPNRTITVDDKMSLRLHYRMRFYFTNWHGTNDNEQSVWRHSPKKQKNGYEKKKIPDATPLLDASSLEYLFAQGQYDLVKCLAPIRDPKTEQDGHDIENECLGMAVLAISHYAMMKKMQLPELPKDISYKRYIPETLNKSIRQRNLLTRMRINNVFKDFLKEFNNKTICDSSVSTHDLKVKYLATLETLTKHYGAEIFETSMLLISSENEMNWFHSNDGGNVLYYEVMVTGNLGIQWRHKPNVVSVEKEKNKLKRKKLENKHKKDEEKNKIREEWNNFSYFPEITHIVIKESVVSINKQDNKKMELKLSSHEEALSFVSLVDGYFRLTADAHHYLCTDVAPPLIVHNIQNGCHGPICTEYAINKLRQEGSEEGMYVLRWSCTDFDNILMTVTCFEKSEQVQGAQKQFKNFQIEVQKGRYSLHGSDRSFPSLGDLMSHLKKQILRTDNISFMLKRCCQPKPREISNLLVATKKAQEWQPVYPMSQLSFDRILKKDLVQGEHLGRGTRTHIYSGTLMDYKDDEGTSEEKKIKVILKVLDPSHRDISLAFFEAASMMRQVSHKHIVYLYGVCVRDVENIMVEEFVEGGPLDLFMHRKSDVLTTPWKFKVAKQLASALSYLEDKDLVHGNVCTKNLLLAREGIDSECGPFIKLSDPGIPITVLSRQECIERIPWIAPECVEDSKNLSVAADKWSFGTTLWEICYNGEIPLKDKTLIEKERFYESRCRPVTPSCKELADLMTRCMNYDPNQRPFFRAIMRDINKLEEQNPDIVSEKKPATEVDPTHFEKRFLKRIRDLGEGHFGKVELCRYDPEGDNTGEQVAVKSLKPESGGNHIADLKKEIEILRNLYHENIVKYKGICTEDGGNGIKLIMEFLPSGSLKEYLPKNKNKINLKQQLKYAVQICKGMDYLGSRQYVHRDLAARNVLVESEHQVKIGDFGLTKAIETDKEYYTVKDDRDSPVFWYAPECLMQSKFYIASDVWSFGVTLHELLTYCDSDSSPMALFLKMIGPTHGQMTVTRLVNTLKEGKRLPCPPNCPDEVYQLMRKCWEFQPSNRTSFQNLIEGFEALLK

For the compound `CC(C)(O)C(=O)N1CCN(c2ccc(C(F)(F)F)c(C3=C(c4c[nH]c5ccccc45)C(=O)NC3=O)c2)CC1`, the values for the IC50 in assay [1] and in assay [2] were 311 nM and 1690 nM, respectively.

As for `O=C1NC(=O)C(c2c[nH]c3ccccc23)=C1Nc1cccc(O[C@H]2CCN(c3ccnc(F)c3)C2)c1`, the IC50 in assay [1] worked out at 628 nM; in assay [3], 13 nM.

On to `O=C1NC(=O)C(c2c[nH]c3ccccc23)=C1Nc1cccc(O[C@@H]2CCN(c3ccnc(F)c3)C2)c1`, for which the results for the IC50 in assay [1], in assay [2] and in assay [3] were 4900 nM, over 10000 nM and 497 nM, respectively.

As for `O=C1NC(=O)C(c2c[nH]c3ccccc23)=C1Nc1cccc(C2CCN(c3ccnc(F)c3)CC2)c1`, the IC50 in assay [1], in assay [2] and in assay [3] was over 10000 nM throughout.

Regarding `O=C1NC(=O)C(c2c[nH]c3ccccc23)=C1Nc1cccc(C2CN(c3ccnc(F)c3)C2)c1`, the half-inhibitory concentration (IC50) in assay [1] is 11100 nM; in assay [2] it was over 10000 nM; in assay [3], 576 nM.

For `O=C1NC(=O)C(c2c[nH]c3ccccc23)=C1Nc1cccc(OCCCn2ccnc2)c1`, the IC50 in assay [1] is 300 nM; in assay [2] it was over 10000 nM; in assay [3] it was 128 nM.

Regarding `O=C1NC(=O)C(c2c[nH]c3ccccc23)=C1Nc1cccc(OCCn2ccnc2)c1`, the values for the IC50 in assay [1], in assay [2] and in assay [3] were over 10000 nM, over 10000 nM and 1790 nM, respectively.

`O=C1NC(=O)C(c2c[nH]c3ccccc23)=C1Nc1ccc(OCCn2ccnc2)cc1`: the IC50 was over 10000 nM in assay [1], 7370 nM in assay [2] and 278 nM in assay [3].

Take `O=C1NC(=O)C(c2c[nH]c3ccccc23)=C1Nc1ccc(OCCCn2ccnc2)cc1`: the 50% inhibitory concentration (IC50) in assay [1] is 8640 nM; in assay [2], over 10000 nM; in assay [3], 1150 nM.

On to `O=C1NC(=O)C(c2c[nH]c3ccccc23)=C1Nc1ccccc1OCCn1ccnc1`, for which the IC50 in assay [1] is over 10000 nM; in assay [2] it was over 10000 nM; in assay [3], 9370 nM.

Regarding `O=C1NC(=O)C(c2c[nH]c3ccccc23)=C1Nc1ccc(OCCCNc2ccnc(F)c2)cc1`, the half-inhibitory concentration (IC50) in assay [1] is 1060 nM; in assay [2], over 10000 nM; in assay [3] it was 135 nM.

In the case of `O=C1NC(=O)C(c2c[nH]c3ccccc23)=C1Nc1ccc(OCCNc2ccnc(F)c2)cc1`, the half-maximal inhibitory concentration (IC50) in assay [1] worked out at 2060 nM; in assay [2], 9840 nM; in assay [3] it was 201 nM.

For the compound `O=C1NC(=O)C(c2c[nH]c3ccccc23)=C1Nc1ccccc1OCCNc1ccnc(F)c1`, the half-maximal inhibitory concentration (IC50) in assay [1], in assay [2] and in assay [3] was over 10000 nM each time.

Take `O=C1NC(=O)C(c2c[nH]c3ccccc23)=C1Nc1cccc(OCCNc2ccnc(F)c2)c1`: the IC50 in assay [1] is 423 nM; in assay [2], over 10000 nM; in assay [3] it was 29 nM.

Regarding `Cn1cc(C2=C(Nc3cccc(OCCNc4ccnc(F)c4)c3)C(=O)NC2=O)c2ccccc21`, the IC50 in assay [1] came out at 1780 nM; in assay [2], 5100 nM; in assay [3], 179 nM.

As to `CN(CCOc1cccc(NC2=C(c3c[nH]c4ccccc34)C(=O)NC2=O)c1)c1ccnc(F)c1`, the values for the half-inhibitory concentration (IC50) in assay [1], in assay [2] and in assay [3] were over 10000 nM, 995 nM and 46 nM, respectively.

In assay [3], `O=C1NC(=O)C(c2c[nH]c3ccccc23)=C1Nc1cccc(OCCNc2ccccn2)c1` gave a concentration for half-maximal inhibition (IC50) of 1500 nM.

Compound `O=C1NC(=O)C(c2c[nH]c3ccccc23)=C1Nc1cccc(OCCNc2cnccn2)c1` registered an IC50 in assay [3] of 408 nM.

As for `O=C1NC(=O)C(c2c[nH]c3ccccc23)=C1Nc1cccc(OCCNc2ccccc2)c1`, inhibition in assay [3] was half-maximal at 1380 nM (IC50).

Turning to `O=C1NC(=O)C(c2c[nH]c3ccccc23)=C1Nc1cccc(OCCNc2cc(F)cc(F)c2)c1`, inhibition in assay [3] was half-maximal at 1390 nM (IC50).

In the case of `O=C1NC(=O)C(c2ccccc2)=C1Nc1cccc(OCCNc2ccnc(F)c2)c1`, the 50% inhibitory concentration (IC50) in assay [1] is 2170 nM; in assay [2] it was over 10000 nM; in assay [3], 576 nM.

Regarding `O=C1C=C(Nc2cccc(OCCNc3ccnc(F)c3)c2)C(=O)N1`, the IC50 in assay [1], in assay [2] and in assay [3] was over 10000 nM in each case.

For `O=C1NC(=O)C(c2c[nH]c3ccccc23)=C1Nc1cccc(OC2CCN(c3ccnc(F)c3)CC2)c1`, the IC50 is 4820 nM in assay [1], over 10000 nM in assay [2] and 625 nM in assay [3].

Regarding `O=C1NC(=O)C(c2c[nH]c3ccccc23)=C1Nc1cccc(OC2CN(c3ccnc(F)c3)C2)c1`, the values for the concentration for half-maximal inhibition (IC50) in assay [1], in assay [2] and in assay [3] were 4100 nM, over 10000 nM and 200 nM, respectively.

As for `O=C1NC(=O)C(c2cn(CCCn3ccnc3)c3ccccc23)=C1Nc1ccccc1`, the IC50 was found to be 770 nM in assay [1], 2310 nM in assay [2] and 17 nM in assay [3].

For the compound `O=C1NC(=O)C(c2c[nH]c3ccccc23)=C1Nc1cccc(C2CCN(c3ccnc(F)c3)C2)c1` (racemic), the IC50 in assay [1], in assay [2] and in assay [3] was over 10000 nM each time.

For the compound `O=C1NC(=O)C(c2c[nH]c3ccccc23)=C1Nc1cccc(OC2CCCN(c3ccnc(F)c3)C2)c1` (racemic), the concentration for half-maximal inhibition (IC50) is over 10000 nM in assay [1], over 10000 nM in assay [2] and 163 nM in assay [3].

Regarding `O=C1NC(=O)C(c2c[nH]c3ccccc23)=C1Nc1cccc(OC2CCN(c3ccnc(F)c3)C2)c1` (racemic), the IC50 in assay [1] is 564 nM; in assay [2], 11900 nM; in assay [3], 12 nM.
